# Results published in US20250320206A1, “STAT6 DEGRADERS” (Gilead Sciences, Inc., priority 2024, published 2025).
# Tested on: Eotaxin-3 release in human whole blood stimulated with IL-4
# Experiment: Human Whole Blood Eotaxin-3 Assay (IL-4 stimulated eotaxin-3 release)
# Format: cell-based
# Details: IL-4 stimulation, 48 h, values given for compounds with >80% Emax, geometric mean
# Description: Human Whole Blood Eotaxin-3 Assay
# This was a human whole blood assay using recombinant human Interleukin 4 to stimulate the blood and measuring the ability of the test compounds to inhibit eotaxin-3 release. The biological activities of the test compounds have been tested in human whole blood stimulated with IL-4 measuring Eotaxin-3 release. The test compounds were added to 384 well clear flat-bottom plate in a 4-fold serial dilution in triplicates using a liquid handler. Human whole blood stabilized in lithium-heparin tubes was added in a volume of 65 μL per well, resulting in a final DMSO concentration of 0.5%. The plate is incubated for 2 h at 37° C. under 5% CO2/95% air. Subsequently, 5 μL of recombinant human IL-4 (R&D Systems, cat #204-ILB) was added to the wells to a final concentration of […]. The plate was incubated for 48 h at 37° C. under 5% CO2/95% air. The plate was spun down for 10 minutes at 500×g and 20 μL supernatant was harvested and transferred to a 384 well v-bottom plate using a liquid handler and stored at −20° C. until further analysis. 10 μL supernatant was used to measure the level of Eotaxin-3 (CCL26) using Human Eotaxin-3 MSD kit from Mesocsale (Cat #K251UEK-4). The assay was performed according to the manufacture instructions.
# The data from the human whole blood eotaxin-3 assay is shown in FIG. 2 for Examples 3u208, 3u246, 3u118, 3u119, 3u120, and 3u74 (where the effect in % is plotted against the test concentration in M on a log scale).
row,EC50 [nM],Compound
1,5.9,"C[C@H]1CN(Cc2ccc3c(c2)n(C)c(=O)n3C2CCC(=O)NC2=O)CCN1CC1CCN(C(=O)c2cc(F)c(C3=CCN([C@@H](C)c4cc5c(-n6cc(F)c7c(c6=O)CCN7)ccnc5n4C)CC3)c(F)c2)CC1 (stereo partly drawn) [Example 3u8, 3-(5-(((S)-4-((1-(3,5-difluoro-4-(1-((S)-1-(4-(7-fluoro-4-oxo-1,2,3,4-tetrahydro-5H-pyrrolo[3,2-c]pyridin-5-yl)-1-methyl-1H-pyrrolo[2,3-b]pyridin-2-yl)ethyl)-1,2,3,6-tetrahydropyridin-4-yl)benzoyl)piperidin-4-yl)methyl)-3-methylpiperazin-1-yl)methyl)-3-methyl-2-oxo-2,3-dihydro-1H-benzo[d]imidazol-1-yl)piperidine-2,6-dione]"
2,8,"C[C@@H](c1cc2c(-n3cc(F)c4c(c3=O)CCN4)ccnc2n1C)N1CC=C(c2c(F)cc(C(=O)N3CCC(CN4CCN(Cc5ccc6c(c5)n(C)c(=O)n6C5CCC(=O)NC5=O)CC4)CC3)cc2F)CC1 (stereo partly drawn) [Example 3u83, 3-(5-((4-((1-(3,5-difluoro-4-(1-((S)-1-(4-(7-fluoro-4-oxo-1,2,3,4-tetrahydro-5H-pyrrolo[3,2-c]pyridin-5-yl)-1-methyl-1H-pyrrolo[2,3-b]pyridin-2-yl)ethyl)-1,2,3,6-tetrahydropyridin-4-yl)benzoyl)piperidin-4-yl)methyl)piperazin-1-yl)methyl)-3-methyl-2-oxo-2,3-dihydro-1H-benzo[d]-imidazol-1-yl)piperidine-2,6-dione]"
3,8.1,"Cc1cc(C(=O)N2CCC(CN3CCN(c4cc5c(cc4F)n(C4CCC(=O)NC4=O)c(=O)n5C)CC3)CC2)cc(F)c1C1=CCN([C@@H](C)c2cc3c(-n4cc(F)c5c(c4=O)CCN5)ccnc3n2C)CC1 (stereo partly drawn) [Example 3u253, 3-(6-fluoro-5-(4-((1-(3-fluoro-4-(1-((S)-1-(4-(7-fluoro-4-oxo-1,2,3,4-tetrahydro-5H-pyrrolo[3,2-c]pyridin-5-yl)-1-methyl-1H-pyrrolo[2,3-b]pyridin-2-yl)ethyl)-1,2,3,6-tetrahydropyridin-4-yl)-5-methylbenzoyl)piperidin-4-yl)methyl)piperazin-1-yl)-3-methyl-2-oxo-2,3-dihydro-1H-benzo[d]imidazol-1-yl)piperidine-2,6-dione]"
4,5.6,"CNc1nc(=O)n(-c2ccnc3c2cc([C@H](C)N2CC=C(c4c(C)cc(C(=O)N5CCC(CN6CCN(c7cc8c(cc7F)n(C7CCC(=O)NC7=O)c(=O)n8C)CC6)CC5)cc4F)CC2)n3C)cc1F (stereo partly drawn) [Example 3u268, 3-(6-fluoro-5-(4-((1-(3-fluoro-4-(1-((S)-1-(4-(5-fluoro-4-(methylamino)-2-oxopyrimidin-1 (2H)-yl)-1-methyl-1H-pyrrolo[2,3-b]pyridin-2-yl)ethyl)-1,2,3,6-tetrahydropyridin-4-yl)-5-methylbenzoyl)piperidin-4-yl)methyl)piperazin-1-yl)-3-methyl-2-oxo-2,3-dihydro-1H-benzo[d]-imidazol-1-yl)piperidine-2,6-dione]"
5,96.3,"C[C@@H](c1cc2c(-n3cc(F)c4c(c3=O)CCN4)ccnc2n1C)N1CC=C(c2c(F)cc(C(=O)N3CCC(CN4CCN(c5cc6c(cc5F)n(C5CCC(=O)NC5=O)c(=O)n6C)CC4)CC3)cc2F)CC1 (stereo partly drawn) [Example 3u269, 3-(5-(4-((1-(3,5-difluoro-4-(1-((S)-1-(4-(7-fluoro-4-oxo-1,2,3,4-tetrahydro-5H-pyrrolo[3,2-c]pyridin-5-yl)-1-methyl-1H-pyrrolo[2,3-b]pyridin-2-yl)ethyl)-1,2,3,6-tetrahydropyridin-4-yl)benzoyl)piperidin-4-yl)methyl)piperazin-1-yl)-6-fluoro-3-methyl-2-oxo-2,3-dihydro-1H-benzo[d]-imidazol-1-yl)piperidine-2,6-dione]"
6,3.3,"CNc1cc(=O)n(-c2ccnc3c2cc([C@H](C)N2CC=C(c4c(C)cc(C(=O)N5CCC(CN6CCN(c7cccc8c7n(C)c(=O)n8C7CCC(=O)NC7=O)CC6)CC5)cc4F)CC2)n3C)cc1F (stereo partly drawn) [Example 3u271, 3-(4-(4-((1-(3-fluoro-4-(1-((S)-1-(4-(5-fluoro-4-(methylamino)-2-oxopyridin-1 (2H)-yl)-1-methyl-1H-pyrrolo[2,3-b]pyridin-2-yl)ethyl)-1,2,3,6-tetrahydropyridin-4-yl)-5-methylbenzoyl)-piperidin-4-yl)methyl)piperazin-1-yl)-3-methyl-2-oxo-2,3-dihydro-1H-benzo[d]imidazol-1-yl)-piperidine-2,6-dione]"
7,31.8,"CNc1ccn(-c2ccnc3c2cc([C@H](C)N2CC=C(c4c(C)cc(C(=O)N5CCC(CN6CCN(c7cc8c(cc7F)n(C7CCC(=O)NC7=O)c(=O)n8C)CC6)CC5)cc4F)CC2)n3C)c(=O)c1F (stereo partly drawn) [Example 3u273, 3-(6-fluoro-5-(4-((1-(3-fluoro-4-(1-((S)-1-(4-(3-fluoro-4-(methylamino)-2-oxopyridin-1 (2H)-yl)-1-methyl-1H-pyrrolo[2,3-b]pyridin-2-yl)ethyl)-1,2,3,6-tetrahydropyridin-4-yl)-5-methylbenzoyl)piperidin-4-yl)methyl)piperazin-1-yl)-3-methyl-2-oxo-2,3-dihydro-1H-benzo[d]imidazol-1-yl)piperidine-2,6-dione]"

# The remaining lines, values behind:
row,Compound,EC50 [nM]
1,"CNc1cc(=O)n(-c2ccnc3c2cc([C@H](C)N2CC=C(c4c(C)cc(C(=O)N5CCC(CN6CCN(Cc7ccc8c(c7)C7(CC7)C(=O)N8C7CCC(=O)NC7=O)C[C@@H]6C)CC5)cc4F)CC2)n3C)cc1OC (stereo partly drawn) [Example 3u117, 3-(5′-(((S)-4-((1-(3-fluoro-4-(1-((S)-1-(4-(5-methoxy-4-(methylamino)-2-oxopyridin-1 (2H)-yl)-1-methyl-1H-pyrrolo[2,3-b]pyridin-2-yl)ethyl)-1,2,3,6-tetrahydropyridin-4-yl)-5-methylbenzoyl)piperidin-4-yl)methyl)-3-methylpiperazin-1-yl)methyl)-2′-oxospiro[cyclopropane-1,3′-indolin]-1′-yl)piperidine-2,6-dione]",1210
2,"CNc1ccn(-c2ccnc3c2cc([C@H](C)N2CC=C(c4c(C)cc(C(=O)N5CCC(CN6CCN(Cc7ccc8c(c7)n(C7CC7)c(=O)n8C7CCC(=O)NC7=O)C[C@@H]6C)CC5)cc4F)CC2)n3C)c(=O)c1OC (stereo partly drawn) [Example 3u135, 3-(3-cyclopropyl-5-(((S)-4-((1-(3-fluoro-4-(1-((S)-1-(4-(3-methoxy-4-(methylamino)-2-oxopyridin-1 (2H)-yl)-1-methyl-1H-pyrrolo[2,3-b]pyridin-2-yl)ethyl)-1,2,3,6-tetrahydropyridin-4-yl)-5-methylbenzoyl)piperidin-4-yl)methyl)-3-methylpiperazin-1-yl)methyl)-2-oxo-2,3-dihydro-1H-benzo[d]imidazol-1-yl)piperidine-2,6-dione]",185
3,"CNc1cc(=O)n(-c2ccnc3c2cc([C@H](C)N2CC=C(c4c(C)cc(C(=O)N5CCC(F)(CN6CCN(c7ccc8c(c7)C7(CC7)C(=O)N8C7CCC(=O)NC7=O)CC6)CC5)cc4F)CC2)n3C)cc1F (stereo partly drawn) [Example 3u136, 3-(5′-(4-((4-fluoro-1-(3-fluoro-4-(1-((S)-1-(4-(5-fluoro-4-(methylamino)-2-oxopyridin-1 (2H)-yl)-1-methyl-1H-pyrrolo[2,3-b]pyridin-2-yl)ethyl)-1,2,3,6-tetrahydropyridin-4-yl)-5-methyl-benzoyl)piperidin-4-yl)methyl)piperazin-1-yl)-2′-oxospiro[cyclopropane-1,3′-indolin]-1′-yl)piperidine-2,6-dione]",16.4
4,"CNc1ccn(-c2ccnc3c2cc([C@H](C)N2CC=C(c4c(C)cc(C(=O)N5CCC(CN6CCN(Cc7ccc8c(c7)C7(CCOCC7)C(=O)N8C7CCC(=O)NC7=O)CC6)CC5)cc4F)CC2)n3C)c(=O)c1 (stereo partly drawn) [Example 3u257, 3-(5-((4-((1-(3-fluoro-5-methyl-4-(1-((S)-1-(1-methyl-4-(4-(methylamino)-2-oxopyridin-1 (2H)-yl)-1H-pyrrolo[2,3-b]pyridin-2-yl)ethyl)-1,2,3,6-tetrahydropyridin-4-yl)benzoyl)-piperidin-4-yl)methyl)piperazin-1-yl)methyl)-2-oxo-2′,3′,5′,6′-tetrahydrospiro[indoline-3,4′-pyran]-1-yl)piperidine-2,6-dione]",24.2
5,"CNc1ccn(-c2ccnc3c2cc([C@H](C)N2CC=C(c4c(C)cc(C(=O)N5CCn6c(nnc6C6CCN(c7ccc8c(c7)n(C)c(=O)n8C7CCC(=O)NC7=O)CC6)C5)cc4F)CC2)n3C)c(=O)c1 (stereo partly drawn) [Example 3u260, 3-(5-(4-(7-(3-fluoro-5-methyl-4-(1-((S)-1-(1-methyl-4-(4-(methylamino)-2-oxopyridin-1 (2H)-yl)-1H-pyrrolo[2,3-b]pyridin-2-yl)ethyl)-1,2,3,6-tetrahydropyridin-4-yl)benzoyl)-5,6,7,8-tetrahydro-[1,2,4]triazolo[4,3-a]pyrazin-3-yl)piperidin-1-yl)-3-methyl-2-oxo-2,3-dihydro-1H-benzo[d]imidazol-1-yl)piperidine-2,6-dione]",11.2
6,"CNc1ccn(-c2ccnc3c2cc(CN2CCC(c4c(F)cc(C(=O)N5CCC(CN6CCN(c7cc8c(cc7F)n(C7CCC(=O)NC7=O)c(=O)n8C)CC6)CC5)cc4F)CC2)n3C)c(=O)c1 (stereo not shown) [Example 3u270, 3-(5-(4-((1-(3,5-difluoro-4-(1-((1-methyl-4-(4-(methylamino)-2-oxopyridin-1 (2H)-yl)-1H-pyrrolo[2,3-b]pyridin-2-yl)methyl)piperidin-4-yl)benzoyl)piperidin-4-yl)methyl)piperazin-1-yl)-6-fluoro-3-methyl-2-oxo-2,3-dihydro-1H-benzo[d]imidazol-1-yl)piperidine-2,6-dione]",26.8
